Experimental data published in ChEMBL document CHEMBL1909046, “DrugMatrix in vitro pharmacology data”.

Columns and labels:
[1] = DRUGMATRIX: Tumor Necrosis Factor (TNF), Non-Selective radioligand binding (ligand: [125I] TNF-alpha); format: cell membranes, Membrane; settings: u-937; Not Active = under 50% inhibition at 10 µM
[2] = DRUGMATRIX: Serotonin (5-Hydroxytryptamine) 5-HT3 radioligand binding (ligand: [3H] GR-65630); format: cell membranes, Membrane; settings: hek293; Not Active = under 50% inhibition at 10 µM
[3] = DRUGMATRIX: Imidazoline I2, Central radioligand binding (ligand: [3H] Idazoxan); format: cell membranes, Rattus norvegicus, Wistar, Cerebral cortex, Membrane; settings: Not Active = under 50% inhibition at 10 µM
D(3) dopamine receptor = D(3) dopamine receptor (Homo sapiens, UniProt P35462); assay: DRUGMATRIX: Dopamine D3 radioligand binding (ligand: [3H] Spiperone); format: cell membranes, CHO, Membrane; settings: cho
Sequence of D(3) dopamine receptor (P35462 whole entry): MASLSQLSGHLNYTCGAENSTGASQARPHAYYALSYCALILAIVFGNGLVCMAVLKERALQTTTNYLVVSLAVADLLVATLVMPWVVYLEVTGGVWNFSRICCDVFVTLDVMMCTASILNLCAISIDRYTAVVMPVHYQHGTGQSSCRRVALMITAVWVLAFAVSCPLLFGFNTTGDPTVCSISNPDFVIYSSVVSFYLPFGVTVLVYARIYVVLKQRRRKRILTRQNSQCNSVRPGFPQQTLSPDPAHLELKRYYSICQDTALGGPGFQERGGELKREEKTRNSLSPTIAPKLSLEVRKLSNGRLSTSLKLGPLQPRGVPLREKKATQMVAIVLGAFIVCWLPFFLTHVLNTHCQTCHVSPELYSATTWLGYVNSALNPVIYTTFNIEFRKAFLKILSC

Neutrophil elastase = biological target: T1, Neutrophil elastase (Homo sapiens, UniProt P08246); format: tissue-based;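 note: inhibition of neutrophil elastase enzyme activity, measured with a p-nitroanilide-linked peptide substrate; in other assays of this panel Not Active means under 50% inhibition at 10 µM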
T1 sequence (P08246 whole entry): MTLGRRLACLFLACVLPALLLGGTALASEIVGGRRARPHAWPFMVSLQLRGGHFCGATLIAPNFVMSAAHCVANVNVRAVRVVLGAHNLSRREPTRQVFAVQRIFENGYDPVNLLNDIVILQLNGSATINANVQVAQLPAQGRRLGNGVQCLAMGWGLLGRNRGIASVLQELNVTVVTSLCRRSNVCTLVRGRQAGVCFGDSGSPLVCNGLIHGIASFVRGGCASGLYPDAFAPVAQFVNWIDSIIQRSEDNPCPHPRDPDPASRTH

Sequence | IC50 [1] | Ki [1] | IC50 [2] | Ki [2] | IC50 [3] | Ki [3] | IC50 (D(3) dopamine receptor) | Ki (D(3) dopamine receptor) | IC50 (Neutrophil elastase) | Ki (Neutrophil elastase) | IC50 (D(3) dopamine receptor; read-out: IC50) | Ki (D(3) dopamine receptor; read-out: Ki)
STANNOUS FLUORIDE | Not Active | Not Active | Not Active | Not Active | Not Active | Not Active | Not Active | Not Active | Not Active | Not Active | – | –
THIMEROSAL | Not Active | Not Active | Not Active | Not Active | Not Active | Not Active | – | – | Not Active | Not Active | 85 nM | 29 nM
